The text below walks through data of a melting point compilation (Tetko et al.; mined from patent text by program, amines drawn as free bases though some values may be those of a salt).

SMILES strings stand for the structures.

With `CSc1nccc(CC(=O)c2ccc(F)cc2)n1`, the melting point lay within 212 to 214 °C.
Turning to `CCCCCCCCCCCCCCCCCCNC(=O)c1ccccc1`, the melting point was in the range of 85 to 87 °C.
In the case of `COc1nc(CC(=O)O)ccc1NC(=O)Nc1ccccc1Br` it was 195 to 197 °C; in that of `CC(Cn1ccnc1)Cn1nnc2ccc(Cl)cc2c1=O` (centres undefined), 100 to 102 °C; in that of `CC(C)(O)c1cnn2c(-c3cccc(-c4ccncc4)c3F)cnc2n1`, 221 to 223 °C.
On to `CCN(c1ccc(C)cc1)c1nc(=O)c2cccnc2s1`, for which the melting point came to 158 °C.
In the case of `CNC(=O)CCC1CCN(Cc2cnc3cc(NC(=O)c4ccc(-c5ccc(F)cc5)cc4)c(C)cc3c2)CC1` it was 207 to 211 °C; in that of `COc1nc(C)cnc1N(C(=O)OCC(C)C)S(=O)(=O)c1cccnc1-c1ccc(CC(C)C)cc1`, 133 to 137 °C; in that of `CS(=O)c1nc2cc(Oc3ccc(Cl)cc3Cl)c(Cl)cc2[nH]1` (centres undefined), 206 to 208 °C.
With `CC(=O)C1CCC2C3CCC4CC(O)CCC4(C)C3C(OC(=O)CCl)CC12C` (centres undefined), the melting point lay in the range of 83 to 86 °C.
With `C#CCOc1ccc(C(=O)C=Cc2c[nH]c3ccccc23)c(O)c1` the figure was 228 to 230 °C; with `Cc1nc2c(-c3cccc(C(F)(F)F)c3)cncn2n1`, 114 to 116 °C.
In the case of `O=c1ccn([C@H]2C=C[C@@H](O)C2)cc1` (racemic) it was 188 to 189 °C; in that of `CC(=O)N(CCCCn1ccnc1)C1=Nc2cccc3cccc1c23`, 127 to 130 °C.
With `CC(=O)O[C@@H]1NC(=O)[C@H]1NC(=O)OCc1ccccc1` the figure was 110 to 113 °C; with `O=[N+]([O-])c1cc(-c2nc3ccccc3s2)cc([N+](=O)[O-])c1`, 73.5 to 84.5 °C; with `Cc1cc(NC(=O)c2ccc(C(=O)N3CCN(c4ncccc4NC(C)C)CC3)nc2)n[nH]1`, 116 to 117 °C.
In turn, `CCCn1nc(-c2ccc(O)cc2)c2cccc(-c3ccc(F)cc3)c21` displayed a melting point of 110 to 111 °C.
In turn, `O=C(c1ccc(-c2ccc(CBr)cc2)cc1)c1ccc(Cl)cc1Cl` gave a melting point of 92 °C.
In the case of `CCCc1nn(-c2ccc(C(F)(F)F)cn2)cc1C=O`, the melting point was in the range of 52 to 53 °C.
In the case of `COC(=O)C(C)(C)C(Cc1ccccc1)NCc1ccccc1` (centres undefined) it was 92 to 94 °C; in that of `c1ccc2nc(CCN3CCc4[nH]c5ccccc5c4C3)ccc2c1`, 195 to 197 °C; in that of `N#CCc1ccccc1Sc1ccc(Cl)c(Cl)c1`, 48 to 49 °C.
In the case of `CCCCCCc1ccc(C=Cc2cc3cc4ccccc4cc3s2)cc1` it was 300 to 302 °C; in that of `c1ccc2c(c1)N[C@H]1CCNCC[C@@H]21` (relative stereo), 102 to 114 °C.
In the case of `CCCNC(=O)N1N=C(c2ccc([N+](=O)[O-])cc2)c2cc(Cl)ccc2CC1C` (centres undefined), the melting point was 186 to 187 °C.
With `Cc1cc2c(cc1O)C(C)(C)CC1(CC(C)(C)c3cc(OC(C)(C)CO)c(C)cc3O1)O2` (centres undefined) the figure was 188 to 189 °C; with `CCOC(=O)n1c2ccccc2c(=O)n1C(c1ccccc1)c1ccccc1`, 115 to 118 °C; with `Cn1c(-c2ccc(Cl)cc2)c(C#N)c(Cl)c1C(F)(F)F`, 110 °C.
In the case of `O=C(O)CCCN1c2ccccc2Sc2ccc(Cl)cc21` it was 142 to 144 °C.
With `COc1ccc(NC(=O)CN(C(=O)CNC(=O)Nc2cccc(C)c2)c2ccccc2)cc1` the figure was 194 °C; with `COc1cccc(N2CCN(C(=O)NCCN(C)C)CC2)c1`, 70 to 72 °C; with `Cn1ccc2ccc(O)cc21`, 74 °C.
`Clc1cnc2ccc(Br)cc2n1` displayed a melting point of 145 °C.
In the case of `O=Cc1ccc(O)c(CCl)c1` it was 123 to 124 °C; in that of `COc1cc2c(Nc3ccc(Oc4cccnc4)cc3)c(C#N)cnc2cc1F`, 235 to 236 °C.
For the compound `Cc1oc(-c2cc3ccccc3s2)nc1COc1ccc(CCCC2OC(=O)NC2=O)cc1` (centres undefined), the melting point was in the range of 154 to 155 °C.
Compound `CCOC(=O)C1COc2ccc(Cl)c(Cl)c2O1` (centres undefined) had a melting point of 92 to 94 °C.
In the case of `Cc1oc(-c2ccco2)nc1COc1ccc(COc2nn(-c3ccccc3)cc2CO)cc1` it was 113 to 114 °C; in that of `Cc1c(Cl)cccc1S(=O)(=O)Nc1ccc2oncc2c1`, 112 °C; in that of `O=C1CCCCC1n1nc(-c2c(-c3ccccc3)nn3ccccc23)ccc1=O` (centres undefined), 166 to 168 °C.
As for `Cc1cc(Cl)cc(C(=O)Nc2ccc(Cl)cn2)n1`, the melting point was 151 °C.
In the case of `CC(C)c1ccc(CN(C(=N)N)c2ccc3c4c(cccc24)CC3)cc1` it was 153 to 155 °C; in that of `O=C1Nc2ccc([N+](=O)[O-])cc2C1c1ncnc2nn(C3CCCCC3)cc12` (centres undefined), 301 to 304 °C; in that of `CC(C(=O)c1ccc(OCc2ccccc2)c(OCc2ccccc2)c1)N1CCC(n2c(=O)[nH]c3ccccc32)CC1` (centres undefined), 87 to 90 °C.
For the compound `CCCN1N=C2C(=Cc3ccc(OC)cc3)CS(=O)(=O)CC2C1c1ccc(OC)cc1` (centres undefined), the melting point was 195 to 198 °C.
Turning to `CCOc1cc(OCC)c([N+](=O)[O-])c(OCC)c1[N+](=O)[O-]`, the melting point worked out at 105 °C.
With `CCCCNC(=O)c1ccco1` the figure was 43.8 °C; with `CCC(O)(CC)c1ccc(-c2cccc(OCc3ccc(CO)c(CO)c3)c2)cc1C`, 76 °C; with `CC(C)(C)C1CCC2(CC1)CC(=NO)CO2` (centres undefined), 118 °C.
Regarding `CCOc1cccc(CC(=O)O)c1OCCn1cc(C(=O)NCc2ccc(Cl)cc2Cl)c(OCC)n1`, the melting point lay within 145 to 146 °C.
`CCCOc1ccccc1-c1nc(C=O)c[nH]1` yielded a melting point of 104 to 105 °C.
`CCOC(=O)CN(CC1CC2c3cccc4[nH]cc(c34)CC2N(C)C1)C(=O)NC(C)C` (centres undefined) yielded a melting point of 118 to 120 °C.
Take `CCc1nc2c(N)nc3ccccc3c2n1CCCNOC`: the melting point lay in the range of 210 to 213 °C.
Compound `CNc1nc2c(N)ncnc2n1C1OC(CO)C(O)C1O` (centres undefined) showed a melting point of over 250 °C.
With `COC(=O)c1ccc(NC(=O)CNc2ccccc2F)cc1` the figure was 169 to 171 °C; with `OCC1OC(n2cnc3c(NN4CCOCC4)nc(Cl)nc32)C(O)C1O` (centres undefined), 160 to 161 °C; with `O=C1CCC(N2C(=O)c3cccc(CNC(=O)c4cnc5ccccc5n4)c3C2=O)C(=O)N1` (centres undefined), over 260 °C.
On to `CCc1cc2c(Cl)cc(F)c(-n3c(=O)cc(C(F)(F)F)[nH]c3=O)c2o1`, for which the melting point fell in the range of 154 to 155 °C.
In turn, `COc1ccc(S(=O)(=O)Nc2ccccc2NC(=O)c2cccnc2)cc1` showed a melting point of 179 to 180 °C.
In turn, `Cc1cc(-c2ccc(C(F)(F)F)cc2)nc(-c2ccnc(-c3ccc(S(N)(=O)=O)s3)c2)n1` showed a melting point of 264 °C.
With `CCOC(=O)C1=C(C)N(C(C)=O)C(c2csc(C)n2)=NC1c1cccc(C)c1` (centres undefined) the figure was 113 to 114 °C; with `COc1ccc(C(C)(C)C)cc1S(N)(=O)=O`, 156 to 158 °C; with `Cc1ccc2nc(-c3ccc(N)c(Br)c3)sc2c1`, 188 to 190 °C.
`O=C1NC(=O)C(c2ccc(N3C(=O)c4ccccc4C3=O)cc2)S1` (centres undefined) displayed a melting point of 243 to 245 °C.
In the case of `Cc1cc2nc(/C=C/c3ccccc3)n(-c3ccccn3)c2cc1C` it was 136 to 137 °C; in that of `CCOC(=O)NCSSc1ccc([N+](=O)[O-])cc1C(Cl)(Cl)Cl`, 90 to 91 °C.
With `CC#CCOc1ccc(SC(C(=O)NO)c2cccc(Cl)c2)cc1` (centres undefined) the figure was 127 °C.
With `c1coc2cc3ccnc3cc2c1` the figure was 97 °C.
Turning to `CCOC(=O)N1C=CC(c2c(-c3ccc(OC)cc3)nc3n2CCC3)C=C1`, the melting point is 116 to 118 °C.
`C/C(=C\c1ccc(OC(C)C)cc1Oc1ncc(C(F)(F)F)cc1Cl)C(=O)NS(=O)(=O)NCCc1ccccn1` displayed a melting point of 121 to 123 °C.
In turn, `CCN1C(=O)C(=CC=C2C=C(c3ccccc3)C=C3N2c2ccccc2C3(C)C)SC1=S` registered a melting point of 270 to 272 °C.
`CCN=C1SC(=NOC(=O)N(C)SC(Cl)(Cl)Cl)C(C)(C)S1` showed a melting point of 69 to 71 °C.
Compound `CC(C)(C)c1ccc2c(c1)Cc1cc(C(C)(C)C)ccc1S2` came in with a melting point of 152 to 154 °C.
With `CCOC(=O)c1c(C(F)(F)F)nc2ccc(OC)cc2c1O` the figure was 184 °C; with `CC1(C)CC(=C(c2ccc(O)cc2)c2ccc(C#CCCO)cc2)CC(C)(C)C1`, 183 to 184 °C; with `CNc1nc(Cl)cc(NS(=O)(=O)c2ccc(F)cc2)n1`, 121 to 123 °C.
In the case of `CNc1nc(-c2cccc(NC(=O)c3ccc(N4CCCC4)nc3)c2)c2cc(OC)c(OC)cc2n1` it was 239 to 241 °C.
In the case of `CCOP(=O)(OCC)N1C(=O)[C@@H](NC(=O)OC(C)(C)C)[C@@H]1C`, the melting point lay in the range of 101 to 104 °C.
`CN1C(=O)N(C)C(=O)C2(CC=C3C(CCC4=Cc5c(cnn5-c5ccc(F)cc5)CC43C)O2)C1=O` (centres undefined): the melting point lay within 188 to 189 °C.
The compound `CC(=O)c1ccc(O)c(-n2nc3ccccc3n2)c1` returned a melting point of 147 °C.
With `CN(Cc1cccc(-c2ccc(CC3SC(=O)NC3=O)cc2)c1)C(=O)c1ccc(O)cc1` (centres undefined) the figure was 110 °C.
`CC(C)(N)c1ccc(-c2nc(Nc3ccc(F)c(F)c3)ncc2C#N)cc1` gave a melting point of 192 °C.
As for `COCCOCCOCCOCC(N)C(=O)O` (centres undefined), the melting point is 184 to 185 °C.
In the case of `CCN(C)C(=O)Nc1cc(C(C)(C)C)on1`, the melting point is 88.5 to 89.5 °C.
`C=CS(=O)(=O)CCC(F)(F)C(F)(F)C(F)(F)C(F)(F)C(F)(F)C(F)(F)F` yielded a melting point of 58 to 60 °C.
With `CC(CO)c1ccc(-c2ccccc2F)c(F)c1` (centres undefined) the figure was 80 to 82.5 °C; with `OCC[C@H]1CN(Cc2ccccc2)CCN1`, 78.9 to 80.4 °C.
With `O=C(O)c1cc(-c2ccc(Cl)cc2)n(Cc2ccc(Cl)cc2Cl)n1` the figure was 185 °C.
